US9167815B2, “Agricultural or horticultural fungicide composition and method for controlling plant pathogen” (ISHIHARA SANGYO KAISHA, LTD., priority 2011, dated 2015)

Key:
Type in all cases: cell-based
[1] = tested on: Rhizoctonia solani; experiment: Inhibition test of mycelial growth against the genus Rhizoctonia (PSA plate); conditions: compound alone, 20° C., 4 days
Description: A mycangium (diameter: 4 mm) obtained by precultivation was transplanted on PSA containing a chemical in a prescribed concentration and then cultured at room temperature of 20° C. for 4 days, followed by measuring a diameter of the grown mycangium to determine an inhibition rate of mycelial growth (%). In addition, an expected value of the inhibition rate calculated according to the Colby's formula in the same manner as that in the foregoing Test Example 1 was listed in parentheses of Tables 4 to 6.

[2] = tested on: Pythium graminicola; experiment: Inhibition test of mycelial growth against the genus Pythium (PSA plate); conditions: compound alone, 20° C., 3 days
Description: A mycangium (diameter: 4 mm) obtained by precultivation was transplanted on PSA containing a chemical in a prescribed concentration and then cultured at room temperature of 20° C. for 3 days, followed by measuring a diameter of the grown mycangium to determine an inhibition rate of mycelial growth (%). In addition, an expected value of the inhibition rate was calculated according to the following Colby's formula and listed in parentheses of Tables 1 to 3. […] Colby's formula: x+y−xy/100 x: Inhibition rate of growth of the component (a) alone (%) y: Inhibition rate of growth of the component (b) alone (%)

[3] = tested on: Botrytis cinerea; experiment: Inhibition test of mycelial growth against gray mold (YS liquid medium, 96-well microplate); conditions: compound alone, 25° C., three days
Description: On a YS (yeast extract+sucrose) liquid culture medium, a certain amount of a chemical solution prepared such that a final concentration of each chemical became a concentration at which the test was carried out was mixed. 100 μL of each of the chemical-containing YS liquid culture media was aliquoted into each well of a 96-well microplate. Thereafter, 50 μL of a spore suspension of gray mold whose spore concentration had been prepared as shown in the following tables was aliquoted into each well and cultivated at 25° C. under a light-dark cycle (light period: 16 hours, dark period: 8 hours). Three days after the cultivation, an area of the well bottom covered by the propagated gray mold hyphae was microscopically examined to determine an inhibition rate of growth (%). The inhibition rate of growth was visually examined while defining an area covered by hyphae in a non-treated well as 100. For the non-treatment, a chemical-free YS liquid culture medium was used. In addition, an expected value of the inhibition rate calculated according to the Colby's formula in the same manner as that in the foregoing Test Example 1 was listed in parentheses of Tables 7 to 13.

[4] = Rhizoctonia solani, 96 h, 0.1 ppm, read-out: Inhibition Rate of Mycelial Growth against Rhizoctonia solani (%)
[5] = Rhizoctonia solani, 96 h, 1 ppm, read-out: Inhibition Rate of Mycelial Growth against Rhizoctonia solani (%)
[6] = Rhizoctonia solani, 96 h, 10 ppm, read-out: Inhibition Rate of Mycelial Growth against Rhizoctonia solani (%)
[7] = Pythium graminicola, 72 h, read-out: Inhibition Rate of Mycelial Growth against Pythium graminicola (%)
[8] = Pythium graminicola, 72 h, 10 ppm, read-out: Inhibition Rate of Mycelial Growth against Pythium graminicola (%)
[9] = Pythium graminicola, 72 h, 100 ppm, read-out: Inhibition Rate of Mycelial Growth against Pythium graminicola (%)
[10] = Botrytis cinerea, 72 h, read-out: Inhibition Rate of Mycelial Growth against Botrytis cinerea (%)
[11] = Botrytis cinerea, 72 h, 0.78 ppm, read-out: Inhibition Rate of Mycelial Growth against Botrytis cinerea (%)
[12] = Botrytis cinerea, 72 h, 1.56 ppm, read-out: Inhibition Rate of Mycelial Growth against Botrytis cinerea (%)

CO/C=C(/C(=O)OC)c1ccccc1Oc1cc(Oc2ccccc2C#N)ncn1 [azoxystrobin]
Inhibition Rate of Mycelial Growth against Rhizoctonia solani (%) ([1]; 0.1 ppm): 4% | Inhibition Rate of Mycelial Growth against Rhizoctonia solani (%) ([1]; 1 ppm): 27% | Inhibition Rate of Mycelial Growth against Rhizoctonia solani (%) ([1]; 10 ppm): 41% | Inhibition Rate of Mycelial Growth against Pythium graminicola (%) ([2]; 10 ppm): 89% | Inhibition Rate of Mycelial Growth against Pythium graminicola (%) ([2]; 100 ppm): 100% | Inhibition Rate of Mycelial Growth against Botrytis cinerea (%) ([3]; 3.13 ppm): 0% | Inhibition Rate of Mycelial Growth against Botrytis cinerea (%) ([3]; 6.25 ppm): 0% | Inhibition Rate of Mycelial Growth against Botrytis cinerea (%) ([3]; 12.5 ppm): 1%

CNC(=O)/C(=N/OC)c1ccccc1COc1cc(C)ccc1C [dimoxystrobin]
Inhibition Rate of Mycelial Growth against Botrytis cinerea (%) ([3]; 0.78 ppm): 0% | Inhibition Rate of Mycelial Growth against Botrytis cinerea (%) ([3]; 1.56 ppm): 0% | Inhibition Rate of Mycelial Growth against Botrytis cinerea (%) ([3]; 3.13 ppm): 0%

O=[N+]([O-])c1cc(C(F)(F)F)c(Cl)c([N+](=O)[O-])c1Nc1ncc(C(F)(F)F)cc1Cl [fluazinam, 3-chloro-N-(3-chloro-5-trifluoromethyl-2-pyridyl)-α,α,α-trifluoro-2,6-dinitro-p-toluidine]
inhibition at 0.1 ppm [1, 4]: 70% | inhibition at 1 ppm [1, 5]: 77% | inhibition at 10 ppm [1, 6]: 85% | inhibition at 100 ppm ([1]; Rhizoctonia solani, 96 h, 100 ppm, read-out: Inhibition Rate of Mycelial Growth against Rhizoctonia solani (%)): 87% | inhibition at 0.1 ppm ([2]; Pythium graminicola, 72 h, 0.1 ppm, read-out: Inhibition Rate of Mycelial Growth against Pythium graminicola (%)): 32% | inhibition at 1 ppm [2, 7]: 48% | inhibition at 10 ppm [2, 8]: 60% | inhibition at 100 ppm [2, 9]: 66% | inhibition at 0.04 ppm ([3]; Botrytis cinerea, 72 h, 0.04 ppm, read-out: Inhibition Rate of Mycelial Growth against Botrytis cinerea (%)): 0% | inhibition at 0.08 ppm ([3]; Botrytis cinerea, 72 h, 0.08 ppm, read-out: Inhibition Rate of Mycelial Growth against Botrytis cinerea (%)): 0% | inhibition at 0.16 ppm ([3]; Botrytis cinerea, 72 h, 0.16 ppm, read-out: Inhibition Rate of Mycelial Growth against Botrytis cinerea (%)): 80%

CO/N=C(/C(=O)OC)c1ccccc1COc1ccccc1C [kresoxim-methyl]
inhibition at 0.1 ppm [1, 4]: 30% | inhibition at 1 ppm [1, 5]: 39% | inhibition at 10 ppm [1, 6]: 42% | inhibition at 1 ppm [2, 7]: 56% | inhibition at 10 ppm [2, 8]: 73% | inhibition at 100 ppm [2, 9]: 62% | inhibition at 3.13 ppm ([3]; Botrytis cinerea, 72 h, 3.13 ppm, read-out: Inhibition Rate of Mycelial Growth against Botrytis cinerea (%)): 0% | inhibition at 6.25 ppm ([3]; Botrytis cinerea, 72 h, 6.25 ppm, read-out: Inhibition Rate of Mycelial Growth against Botrytis cinerea (%)): 1% | inhibition at 12.5 ppm ([3]; Botrytis cinerea, 72 h, 12.5 ppm, read-out: Inhibition Rate of Mycelial Growth against Botrytis cinerea (%)): 1%

CNC(=O)/C(=N/OC)c1ccccc1Oc1ccccc1 [metominostrobin]
inhibition at 25 ppm ([3]; Botrytis cinerea, 72 h, 25 ppm, read-out: Inhibition Rate of Mycelial Growth against Botrytis cinerea (%)): 0% | inhibition at 50 ppm ([3]; Botrytis cinerea, 72 h, 50 ppm, read-out: Inhibition Rate of Mycelial Growth against Botrytis cinerea (%)): 1% | inhibition at 100 ppm ([3]; Botrytis cinerea, 72 h, 100 ppm, read-out: Inhibition Rate of Mycelial Growth against Botrytis cinerea (%)): 3%

CO/C=C(/C(=O)OC)c1ccccc1COc1cccc(C(F)(F)F)n1 [picoxystrobin]
Inhibition Rate of Mycelial Growth against Botrytis cinerea (%) ([3]; 6.25 ppm): 1% | Inhibition Rate of Mycelial Growth against Botrytis cinerea (%) ([3]; 12.5 ppm): 2% | Inhibition Rate of Mycelial Growth against Botrytis cinerea (%) ([3]; 25 ppm): 3%

COC(=O)N(OC)c1ccccc1COc1ccn(-c2ccc(Cl)cc2)n1 [pyraclostrobin]
inhibition at 0.1 ppm [1, 4]: 26% | inhibition at 1 ppm [1, 5]: 55% | inhibition at 10 ppm [1, 6]: 67% | inhibition at 1 ppm [2, 7]: 83% | inhibition at 10 ppm [2, 8]: 100% | inhibition at 100 ppm [2, 9]: 100% | inhibition at 0.39 ppm [3, 10]: 0% | inhibition at 0.78 ppm [3, 11]: 1% | inhibition at 1.56 ppm [3, 12]: 5%

CON=C(C(=O)OC)c1ccccc1CON=C(C)c1cccc(C(F)(F)F)c1 [trifloxystrobin]
inhibition at 0.39 ppm [3, 10]: 0% | inhibition at 0.78 ppm [3, 11]: 0% | inhibition at 1.56 ppm [3, 12]: 0%
